Experimental data reported in PubChem BioAssay (NCI).
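Briefly, cells in 96-well plates were exposed to five compound concentrations for 48 h, and endpoints were estimated by linear interpolation. GI50 marks 50% less growth. TGI is the concentration that stops growth completely.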

Assays:
Experiment in all cases: NCI tumour cell line growth inhibition, 48 h
HT29 colon = system: HT29 colon
NCI-H226 lung = system: NCI-H226 lung
KM12 colon = system: KM12 colon
RPMI-8226 leukemia = system: RPMI-8226 leukemia
A549 NSCLC = system: A549 NSCLC
SF-268 CNS = system: SF-268 CNS
UACC-257 melanoma = system: UACC-257 melanoma
HOP-92 NSCLC = system: HOP-92 NSCLC
MOLT-4 leukemia = system: MOLT-4 leukemia
NCI/ADR-RES ovarian = system: NCI/ADR-RES ovarian
IGROV1 ovarian = system: IGROV1 ovarian
786-0 renal = system: 786-0 renal
HCC-2998 colon = system: HCC-2998 colon
SNB-75 CNS = system: SNB-75 CNS
HCT-15 colon = system: HCT-15 colon
RXF 393 renal = system: RXF 393 renal
EKVX NSCLC = system: EKVX NSCLC
PC-3 prostate = system: PC-3 prostate
NCI-H23 lung = system: NCI-H23 lung
MDA-MB-435 = system: MDA-MB-435
DU-145 prostate = system: DU-145 prostate
LOX IMVI melanoma = system: LOX IMVI melanoma
SK-MEL-2 melanoma = system: SK-MEL-2 melanoma
SK-OV-3 ovarian = system: SK-OV-3 ovarian
U251 CNS = system: U251 CNS
BT-549 breast = system: BT-549 breast
NCI-H460 lung = system: NCI-H460 lung
CAKI-1 renal = system: CAKI-1 renal
SW-620 colon = system: SW-620 colon
SNB-19 CNS = system: SNB-19 CNS
SF-539 CNS = system: SF-539 CNS
CCRF-CEM leukemia = system: CCRF-CEM leukemia
MALME-3M melanoma = system: MALME-3M melanoma
M14 melanoma = system: M14 melanoma
HCT-116 colon = system: HCT-116 colon
OVCAR-8 ovarian = system: OVCAR-8 ovarian
T-47D breast = system: T-47D breast
OVCAR-5 ovarian = system: OVCAR-5 ovarian
HL-60(TB) leukemia = system: HL-60(TB) leukemia
COLO 205 colon = system: COLO 205 colon
TK-10 renal = system: TK-10 renal
UACC-62 melanoma = system: UACC-62 melanoma
OVCAR-4 ovarian = system: OVCAR-4 ovarian
HOP-62 NSCLC = system: HOP-62 NSCLC
SF-295 CNS = system: SF-295 CNS
MCF7 breast = system: MCF7 breast
K-562 leukemia = system: K-562 leukemia
UO-31 renal = system: UO-31 renal
A498 renal = system: A498 renal
SN12C renal = system: SN12C renal
ACHN renal = system: ACHN renal
OVCAR-3 ovarian = system: OVCAR-3 ovarian
MDA-MB-231 breast = system: MDA-MB-231 breast
SR leukemia = system: SR leukemia

**Q.** With `COc1ccc2c(c1)c(-c1nonc1-c1cn(C)c3ccccc13)cn2C` as the compound, how does the GI50 (HT29 colon) read?
**A.** 357 nM

**Q.** What about the TGI (HT29 colon) of the same compound?
**A.** > 100000 nM

**Q.** And the GI50 (NCI-H226 lung)?
**A.** 998 nM

**Q.** What about the TGI (NCI-H226 lung) of the same compound?
**A.** > 100000 nM

**Q.** What about the GI50 (KM12 colon) of the same compound?
**A.** 414 nM

**Q.** And the TGI (KM12 colon)?
**A.** > 100000 nM

**Q.** And the GI50 (RPMI-8226 leukemia)?
**A.** 634 nM

**Q.** What about the TGI (RPMI-8226 leukemia) of the same compound?
**A.** > 100000 nM

**Q.** And the GI50 (A549 NSCLC)?
**A.** 629 nM

**Q.** What about the TGI (A549 NSCLC) of the same compound?
**A.** > 100000 nM

**Q.** What about the GI50 (SF-268 CNS) of the same compound?
**A.** 1290 nM

**Q.** And the TGI (SF-268 CNS)?
**A.** > 100000 nM

**Q.** And the GI50 (UACC-257 melanoma)?
**A.** 463 nM

**Q.** What about the TGI (UACC-257 melanoma) of the same compound?
**A.** > 100000 nM

**Q.** And the GI50 (HOP-92 NSCLC)?
**A.** 890 nM

**Q.** And the TGI (HOP-92 NSCLC)?
**A.** > 100000 nM

**Q.** What about the GI50 (MOLT-4 leukemia) of the same compound?
**A.** 668 nM

**Q.** And the TGI (MOLT-4 leukemia)?
**A.** > 100000 nM

**Q.** And the GI50 (NCI/ADR-RES ovarian)?
**A.** 408 nM

**Q.** What about the TGI (NCI/ADR-RES ovarian) of the same compound?
**A.** > 100000 nM

**Q.** What about the GI50 (IGROV1 ovarian) of the same compound?
**A.** 577 nM

**Q.** And the TGI (IGROV1 ovarian)?
**A.** > 100000 nM

**Q.** What about the GI50 (786-0 renal) of the same compound?
**A.** 628 nM

**Q.** What about the TGI (786-0 renal) of the same compound?
**A.** > 100000 nM

**Q.** And the GI50 (HCC-2998 colon)?
**A.** 1110 nM

**Q.** And the TGI (HCC-2998 colon)?
**A.** > 100000 nM

**Q.** And the GI50 (SNB-75 CNS)?
**A.** 198 nM

**Q.** And the TGI (SNB-75 CNS)?
**A.** 671 nM

**Q.** What about the GI50 (HCT-15 colon) of the same compound?
**A.** 456 nM

**Q.** And the TGI (HCT-15 colon)?
**A.** > 100000 nM

**Q.** What about the GI50 (RXF 393 renal) of the same compound?
**A.** 270 nM

**Q.** What about the TGI (RXF 393 renal) of the same compound?
**A.** 1030 nM

**Q.** And the GI50 (EKVX NSCLC)?
**A.** 1110 nM

**Q.** And the TGI (EKVX NSCLC)?
**A.** > 100000 nM

**Q.** And the GI50 (PC-3 prostate)?
**A.** 481 nM

**Q.** What about the TGI (PC-3 prostate) of the same compound?
**A.** > 100000 nM

**Q.** What about the GI50 (NCI-H23 lung) of the same compound?
**A.** 996 nM

**Q.** And the TGI (NCI-H23 lung)?
**A.** > 100000 nM

**Q.** And the GI50 (MDA-MB-435)?
**A.** 169 nM

**Q.** What about the TGI (MDA-MB-435) of the same compound?
**A.** 554 nM

**Q.** What about the GI50 (DU-145 prostate) of the same compound?
**A.** 528 nM

**Q.** What about the TGI (DU-145 prostate) of the same compound?
**A.** > 100000 nM

**Q.** What about the GI50 (LOX IMVI melanoma) of the same compound?
**A.** 588 nM

**Q.** What about the TGI (LOX IMVI melanoma) of the same compound?
**A.** > 100000 nM

**Q.** What about the GI50 (SK-MEL-2 melanoma) of the same compound?
**A.** 554 nM

**Q.** What about the TGI (SK-MEL-2 melanoma) of the same compound?
**A.** > 100000 nM

**Q.** What about the GI50 (SK-OV-3 ovarian) of the same compound?
**A.** 536 nM

**Q.** What about the TGI (SK-OV-3 ovarian) of the same compound?
**A.** > 100000 nM

**Q.** What about the GI50 (U251 CNS) of the same compound?
**A.** 440 nM

**Q.** What about the TGI (U251 CNS) of the same compound?
**A.** > 100000 nM

**Q.** What about the GI50 (BT-549 breast) of the same compound?
**A.** 798 nM

**Q.** And the TGI (BT-549 breast)?
**A.** > 100000 nM

**Q.** And the GI50 (NCI-H460 lung)?
**A.** 403 nM

**Q.** And the TGI (NCI-H460 lung)?
**A.** > 100000 nM

**Q.** And the GI50 (CAKI-1 renal)?
**A.** 382 nM

**Q.** And the TGI (CAKI-1 renal)?
**A.** > 100000 nM

**Q.** What about the GI50 (SW-620 colon) of the same compound?
**A.** 367 nM

**Q.** And the TGI (SW-620 colon)?
**A.** > 100000 nM

**Q.** What about the GI50 (SNB-19 CNS) of the same compound?
**A.** 556 nM

**Q.** And the TGI (SNB-19 CNS)?
**A.** > 100000 nM

**Q.** And the GI50 (SF-539 CNS)?
**A.** 312 nM

**Q.** What about the TGI (SF-539 CNS) of the same compound?
**A.** 1530 nM

**Q.** What about the GI50 (CCRF-CEM leukemia) of the same compound?
**A.** 374 nM

**Q.** What about the TGI (CCRF-CEM leukemia) of the same compound?
**A.** > 100000 nM

**Q.** And the GI50 (MALME-3M melanoma)?
**A.** 675 nM

**Q.** And the TGI (MALME-3M melanoma)?
**A.** > 100000 nM

**Q.** And the GI50 (M14 melanoma)?
**A.** 373 nM

**Q.** And the TGI (M14 melanoma)?
**A.** > 100000 nM

**Q.** What about the GI50 (HCT-116 colon) of the same compound?
**A.** 441 nM

**Q.** And the TGI (HCT-116 colon)?
**A.** > 100000 nM

**Q.** What about the GI50 (OVCAR-8 ovarian) of the same compound?
**A.** 570 nM

**Q.** And the TGI (OVCAR-8 ovarian)?
**A.** > 100000 nM

**Q.** What about the GI50 (T-47D breast) of the same compound?
**A.** 542 nM

**Q.** And the TGI (T-47D breast)?
**A.** > 100000 nM

**Q.** What about the GI50 (OVCAR-5 ovarian) of the same compound?
**A.** 1250 nM

**Q.** And the TGI (OVCAR-5 ovarian)?
**A.** > 100000 nM

**Q.** What about the GI50 (HL-60(TB) leukemia) of the same compound?
**A.** 340 nM

**Q.** And the GI50 (COLO 205 colon)?
**A.** 479 nM

**Q.** And the TGI (COLO 205 colon)?
**A.** > 100000 nM

**Q.** What about the GI50 (TK-10 renal) of the same compound?
**A.** 2260 nM

**Q.** And the TGI (TK-10 renal)?
**A.** > 100000 nM

**Q.** And the GI50 (UACC-62 melanoma)?
**A.** 493 nM

**Q.** What about the TGI (UACC-62 melanoma) of the same compound?
**A.** > 100000 nM

**Q.** And the GI50 (OVCAR-4 ovarian)?
**A.** 1680 nM

**Q.** What about the TGI (OVCAR-4 ovarian) of the same compound?
**A.** > 100000 nM

**Q.** And the GI50 (HOP-62 NSCLC)?
**A.** 670 nM

**Q.** What about the TGI (HOP-62 NSCLC) of the same compound?
**A.** > 100000 nM

**Q.** What about the GI50 (SF-295 CNS) of the same compound?
**A.** 343 nM

**Q.** And the TGI (SF-295 CNS)?
**A.** > 100000 nM

**Q.** What about the GI50 (MCF7 breast) of the same compound?
**A.** 364 nM

**Q.** What about the TGI (MCF7 breast) of the same compound?
**A.** > 100000 nM

**Q.** What about the GI50 (K-562 leukemia) of the same compound?
**A.** 300 nM

**Q.** What about the TGI (K-562 leukemia) of the same compound?
**A.** > 100000 nM

**Q.** What about the GI50 (UO-31 renal) of the same compound?
**A.** 430 nM

**Q.** And the TGI (UO-31 renal)?
**A.** > 100000 nM

**Q.** And the GI50 (A498 renal)?
**A.** 332 nM

**Q.** What about the TGI (A498 renal) of the same compound?
**A.** 988 nM

**Q.** What about the GI50 (SN12C renal) of the same compound?
**A.** 697 nM

**Q.** And the TGI (SN12C renal)?
**A.** > 100000 nM

**Q.** What about the GI50 (ACHN renal) of the same compound?
**A.** 621 nM

**Q.** What about the TGI (ACHN renal) of the same compound?
**A.** > 100000 nM

**Q.** And the GI50 (OVCAR-3 ovarian)?
**A.** 336 nM

**Q.** And the TGI (OVCAR-3 ovarian)?
**A.** 8750 nM

**Q.** What about the GI50 (MDA-MB-231 breast) of the same compound?
**A.** 877 nM

**Q.** And the TGI (MDA-MB-231 breast)?
**A.** > 100000 nM

**Q.** What about the GI50 (SR leukemia) of the same compound?
**A.** 313 nM

**Q.** And the TGI (SR leukemia)?
**A.** > 100000 nM
